Laboratory results as given in PubChem BioAssay AID1845204 (Molecular Pharmacology Branch, DTP, NCI, 2023).

Test system: HSSY-II tumor spheroid viability
Experiment: Anticancer human tumor HSSY-II cell line growth inhibition;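 further: spheroids exposed to compounds for seven days before reading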;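 on viability, T/C: percent of DMSO vehicle control viability so 100% = untreated level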
Settings: spheroids with HUVEC and MSC; for IC50: curve of first compound; for viability, T/C: stronger effect = lower value; active means viability on the fitted dose curve at most 10% of control; inactive means the rest
Description: Multicellular complex tumor spheroid response to DNA repair inhibitors in combination with DNA-damaging drugs
This study explores the anticancer activities of DNA-damaging drugs and inhibitors of DNA damage repair, both as single agents and in combinations. Complex tumor spheroids comprised of malignant cells, endothelial cells and mesenchymal stem cells served as an in vitro model for human solid tumors. This model system incorporates physiologically relevant features and patient-derived or established malignant cell lines with clinically relevant genetic alterations from many tumor types. Twenty-six patient-derived or established malignant cell lines were evaluated representing sarcoma, melanoma, small cell lung cancer (SCLC), non-small cell lung cancer (NSCLC), as well as bladder, ovarian and pancreatic cancers. The concentration ranges selected for each drug and investigational agent were based upon clinically achievable concentrations if the clinical Cmax of the agent was known.
Compounds. The drugs and compounds olaparib (NSC753686), talazoparib (NSC767125), berzosertib (NSC777718), elimusertib (NSC800525), nedisertib (NSC802822), VX-984 (NSC792969), AZD-1390 (NSC803789), temozolomide (NSC362856), topotecan (NSC609699), trabectedin (NSC813783), staurosporine (NSC755774), and gemcitabine (NSC613327) were obtained from the National Cancer Institute (NCI) Developmental Therapeutics Program Chemical Repository. The FDA-approved anticancer drug set is available from the Developmental Therapeutics Program at https://dtp.cancer.gov/organization/dscb/obtaining/available_plates.htm. […] The stock solutions were prepared in dimethyl sulfoxide (DMSO, Sigma-Aldrich, St. Louis, MO, cat. D2650) at 400-fold the tested concentration and stored at -70 degrees C. Prior to their use, the stock solutions were diluted in fresh medium and the final DMSO concentration in the assay was 0.25% (v/v). All drugs and investigational agents were tested over a range starting from a high concentration at or near the clinical Cmax and decreasing in half-log increments. If the clinical Cmax for an agent had not been determined, the highest concentration tested was 10 microM.
Cell Lines. The patient-derived cancer cell (PDC) lines: 156681-154-R-J1-PDC, 283228-195-R-J1-PDC, 287954-098-R-J1-PDC, 292921-168-R-J2-PDC, 349418-098-R-PDC, 425362-245-T-J1-PDC, 556581-035-R-J1-PDC, and BL0293-F563-PDC were received from the NCI Patient-Derived Models Repository (PDMR, https://pdmr.cancer.gov). The established cell lines HS-SY-2 (RRID:CVCL_8719), MPNST, and SYO-1 (RRID:CVCL_7146) were obtained from the Sloan Kettering Institute. The alveolar soft parts sarcoma cell line ASPS-1 (RRID:CVCL_S738) was established at the NCI and grown from internal seed stocks. The following established cell lines were purchased from the American Type Culture Collection (ATCC, Manassas, VA): G-401 (ATCC, cat. CRL-1441, RRID:CVCL_0270), SW982 (ATCC, cat. HTB-93, RRID:CVCL_1734), VA-ES-BJ (ATCC, cat. CRL-2138, RRID:CVCL_1785), NCI-H719 (ATCC, cat. CRL-5837, RRID:CVCL_1582), NCI-H196 (ATCC, cat. CRL-5823, RRID:CVCL_1509), NCI-H841 (ATCC, cat. CRL-5845, RRID:CVCL_1595), NCI-H1618 (ATCC, cat. CRL-5879, RRID:CVCL_1480), NCI-H1876 (ATCC, cat. CRL-5902, RRID:CVCL_1503), DMS 114 (ATCC, cat. CRL-2066; RRID:CVCL_1174), NCI-H211 (ATCC, cat. CRL-5824; RRID:CVCL_1529), and SW 1271 (ATCC, cat. CRL-2177, RRID:CVCL_1716). The small cell lung cancer cell line COR-L88 was purchased from Sigma-Aldrich (cat. 92031917-1VL, RRID:CVCL_1141). The non-small cell lung cancer cell lines NCI-H226 (RRID:CVCL_1544) and NCI-H322M (RRID:CVCL_1557) were established at the NCI and grown from internal seed stocks. Pooled donor human umbilical vein endothelial cells (HUVEC, Lonza, cat. CC-2519) and human mesenchymal stem cells (hMSC, Lonza, cat. PT-2501) were purchased from Lonza (Walkersville, MD).
Cell Culture. All cells were maintained in an incubator at 37 degrees C and 5% CO2 with 95% humidity. […]

CNCc1ccc(-c2cc(-c3nc(-c4ccc(S(=O)(=O)C(C)C)cc4)cnc3N)on2)cc1 + CC[C@@]1(O)C(=O)OCc2c1cc1n(c2=O)Cc2cc3c(CN(C)C)c(O)ccc3nc2-1
active: viability, T/C (second compound 0.003 µM, first compound 0.0949 µM) 3.68% | viability, T/C (second compound 0.003 µM, first compound 0.3 µM) 4.09% | viability, T/C (second compound 0.003 µM, first compound 0.949 µM) 2.62% | viability, T/C (second compound 0.003 µM, first compound 3 µM) 0.44% | viability, T/C (second compound 0.00949 µM, first compound 0.03 µM) 9.13% | viability, T/C (second compound 0.00949 µM, first compound 0.0949 µM) 3.26% | viability, T/C (second compound 0.00949 µM, first compound 0.3 µM) 4.02% | viability, T/C (second compound 0.00949 µM, first compound 0.949 µM) 2.08% | viability, T/C (second compound 0.00949 µM, first compound 3 µM) 0.35% | viability, T/C (second compound 0.03 µM, first compound 0.00949 µM) 6.55% | viability, T/C (second compound 0.03 µM, first compound 0.03 µM) 4.21% | viability, T/C (second compound 0.03 µM, first compound 0.0949 µM) 3.3% | viability, T/C (second compound 0.03 µM, first compound 0.3 µM) 3.14% | viability, T/C (second compound 0.03 µM, first compound 0.949 µM) 2.37% | viability, T/C (second compound 0.03 µM, first compound 3 µM) 0.13% | viability, T/C (second compound 0.0949 µM, first compound 0.00949 µM) 4.97% | viability, T/C (second compound 0.0949 µM, first compound 0.03 µM) 3.98% | viability, T/C (second compound 0.0949 µM, first compound 0.0949 µM) 4.07% | viability, T/C (second compound 0.0949 µM, first compound 0.3 µM) 3.55% | viability, T/C (second compound 0.0949 µM, first compound 0.949 µM) 2.72% | viability, T/C (second compound 0.0949 µM, first compound 3 µM) 0.42% | viability, T/C (second compound 0.3 µM, first compound 0.00949 µM) 4.42% | viability, T/C (second compound 0.3 µM, first compound 0.03 µM) 3.95% | viability, T/C (second compound 0.3 µM, first compound 0.0949 µM) 3.59% | viability, T/C (second compound 0.3 µM, first compound 0.3 µM) 3.99% | viability, T/C (second compound 0.3 µM, first compound 0.949 µM) 3.16% | viability, T/C (second compound 0.3 µM, first compound 3 µM) 0.24%
< 9.49 nM: IC50 (second compound 0.00949 µM) | IC50 (second compound 0.03 µM) | IC50 (second compound 0.0949 µM) | IC50 (second compound 0.3 µM)
18.6 nM: IC50 (second compound 0.003 µM)
inactive: viability, T/C (second compound 0.003 µM, first compound 0.00949 µM) 77.6% | viability, T/C (second compound 0.003 µM, first compound 0.03 µM) 30.6% | viability, T/C (second compound 0.00949 µM, first compound 0.00949 µM) 32.7%
